Reference: patent publication US9624167B2, “N-(4-hydroxy-4-methyl-cyclohexyl)-4-phenyl-benzenesulfonamides and N-(4-hydroxy-4-methyl-cyclohexyl)-4-(2-pyridyl)benzenesulfonamides and their therapeutic use” (PIMCO 2664 LIMITED, priority 2013, dated 2017)
Values after ≈ are worked out from the molar mass of the structure shown. Like-named read-outs stand apart in the source and are kept apart here.

What was measured:
[1] = Human Liver Microsomal Stability; format: in vitro ADME; conditions: both sexes, pooled liver microsomes, 1 μM compound
Procedure: Metabolic stability was measured by determining the rate of disappearance of compound in the presence of human liver microsomal preparations, as quantified by liquid chromatography mass-spectrometry and […] mass-spectrometry (LC-MS/MS).
Metabolic stability of test compounds was measured by determination of the rate of disappearance of the compound when incubated in the presence of human liver microsomes. Liver microsomes are prepared from the endoplasmic reticulum of hepatocytes and are the primary source of the most important enzymes (cytochrome P450s) involved in drug metabolism. Study of drug stability in the presence of liver microsomes is accepted as a valuable model permitting rapid prediction of in vivo drug stability.
Human liver microsomes were obtained from a commercial source. Test compounds (1 μM) were incubated with pooled liver microsomes (male and female). Samples were incubated for a 60 minute period and removed at up to 6 time points and analysed by LC-MS/MS for the presence/amount of test compounds.
Microsomes (final protein concentration 0.25 or 0.5 mg/mL), 0.1 M phosphate buffer pH 7.4, and test compound (final concentration 1 μM; diluted from 10 mM stock solution to give a final DMSO concentration of 0.1%) were incubated at 37° C. prior to the addition of Nicotinamide adenine dinucleotide phosphate (NADPH, final concentration 1 mM) to initiate the reaction. The final incubation volume was 100 μL. A control incubation was included for each compound tested, where 0.1 M phosphate buffer pH 7.4 was added instead of NADPH. […]
Each compound was incubated for 0, 5, 15, 30, 45 or 60 minutes. The reactions were stopped by the addition of 100 μL ice-cold acetonitrile containing internal standard (0.001 mM glipizide) at the appropriate time points. The incubation plates were centrifuged at 4000 rpm for 15 minutes at 4° C. to precipitate the protein and 0.1 mL aliquots were analysed using LC-MS/MS, with the conditions shown in the following table.
From a plot of the natural logarithm of the peak area ratio (i.e., the ratio of compound peak area:internal standard peak area) against time, the gradient of the line was determined.

[2] = Aqueous (FaSSIF) solubility; format: physicochemical; conditions: fasted state simulated intestinal fluid (FaSSIF); for solubility at 16 h: kinetic from dmso stock, pH 6.5, three replicates, read-out: Solubility (1); for solubility: pH 6.8, two replicates, read-out: Solubility (2)
Procedure: Solubility was measured by equilibration of the compound in fasted state simulated intestinal fluid (FaSSIF) and quantified by high-performance liquid chromatography (HPLC).
Aqueous solubility was measured by equilibration of compounds with fasted state simulated intestinal fluid (FaSSIF) and quantified spectrophotometrically.
FaSSIF was prepared as described below:
Preparation of blank FaSSIF: 0.21 g of sodium hydroxide (NaOH) pellets, 1.97 g of dihydrogen sodium phosphate (NaH2PO4.2H2O) and 3.09 g of sodium chloride (NaCl) were dissolved in 400 mL of deionised water. […]
Preparation of FaSSIF: 0.056 g of SIF Powder (containing sodium taurocholate and lecithin) (Phares AG) was dissolved in 25 mL of blank FaSSIF and stirred until the powder was completely dissolved. The solution was allowed to stand for 2 hours during which it became opalescent; it was used within 24 hours. The final solution composition was characterised as follows: • Sodium taurocholate: 3 mM • Lecithin: 0.75 mM • Osmolarity: 270±10 mOsmol • pH: 6.5
The optical density was measured at the end of the incubation period for test compounds and a reference used to determine solubility. In brief, two samples were prepared for each determination: a reference sample consisting of a stock solution of test compound in DMSO diluted in system solution (a phosphate free, low absorption buffer) and propanol; and a test sample (prepared in triplicate) consisting of 0.5 mL FaSSIF spiked with test compound at 0.2 mM. Each sample was incubated at room temperature for 16 hours with constant shaking at 250 rpm. At the end of the incubation period, 0.3 mL of each sample was filtered through a pION filter plate (PION, Woburn Mass.), diluted 1:1 with propanol and scanned using UV spectrophotometry at λmax ([…]) using a Spectra Max Plus—Version 2.1000 (Molecular Devices, Sunnyvale, Calif.), with μSOL Explorer solubility determination software (pION, Woburn, Mass.).
FaSSIF solubility was calculated using the following formula:
[formula] wherein: • “OD” is the optical density; • “Cr” is the concentration of the reference (33.4 μM); and • “molecular weight” is for the test compound (e.g., 381.44 for ABD735).

[3] = tested on: IL-6 release from LPS-stimulated Thp1 macrophages; experiment: Thp1 Macrophage IL-6 Release Assay; format: cell-based; conditions: Homo sapiens
Excerpt: Anti-inflammatory effects were further characterised by assessing the production of interleukin-6 (IL-6) by human Thp-1 derived macrophages stimulated with a pro-inflammatory stimulus bacterial lipopolysaccharide (LPS). LPS acts with a cell-surface receptor, Toll-like receptor-4 to activate the NFκB and IRF signalling pathways to produce IL-6. The reduction of IL—in this stimulated assay is indicative of anti-inflammatory effects with utility in the treatment of conditions in which IL-6 production is aberrant.
In vitro potency of test compounds in human cells was determined by incubation with Thp1 macrophages and subsequent stimulation with an inflammatory stimulus (bacterial lipopolysaccharide (LPS)) followed by measurement of cellular interleukin-6 (IL-6) release.
Thp1 cells were plated at a concentration of 1×10^5 cells/well or 1.7×10^5 cells/well in 500 μL or 150 μL RPMI complete media containing 1% penicillin-streptomycin and 10% heat inactivated foetal bovine serum in 24-well plates or 96-well plates, respectively and allowed to adhere overnight. The following day, the cells were stimulated with phorbol myristic acid (PMA) at a final concentration of 100 nM (24-well plates) or 200 nM (96-well plates) to induce differentiation and maintained for up to 8 days with a medium change at 5 days if cells were cultured to 8 days. Test compounds were prepared as […] solutions in DMSO and then serially diluted in DMSO prior to dilution in culture medium.
The diluted compounds were added to the cultures 1 hour prior to stimulation with 100 ng/mL LPS. Following a 16 or 18 hour incubation at 37° C./5% CO2, the cell culture medium was collected and assayed for human IL-6 levels using the human IL-6 duo-set ELISA kit (R&D Systems). The average results for each test compound (n=3) were expressed as a percent (%) of the average control value. The average values across the concentrations tested were then plotted and the IC50 for the inhibition of IL-6 was calculated by fitting the data to a 4-parameter IC50 equation using software from Grafit version 6.0.12 (Erithacus Software Ltd., by Dr Robin Leatherbarrow) or GraphPad Prism version 5.04 for Windows (GraphPad Software, La Jolla, Calif., USA, www.qraphpad.com). Each experiment was repeated twice and the data are presented as the mean IC50 from both experiments.

[4] = pH 7.4, human liver microsomes 0.25 mg/mL protein, 5 time points 0-60 min, one replicate, read-out: T1/2 (1)
[5] = pH 7.4, human liver microsomes 0.5 mg/mL protein, 6 time points 0-60 min, two replicates, read-out: T1/2 (2)
[6] = THP-1, 1 × 10^5 cells/well, 24-well plates, 8 days, 6 point curve, IL6 measured 16 hours after LPS, read-out: IC50 (1)
[7] = THP-1, 1.7 × 10^5 cells/well, 96-well plates, 3 days, 9 point curve, IL6 measured 18 hours after LPS, read-out: IC50 (2)

SMILES | half-life at 1 μM [1, 4] [h] | solubility at 16 h [2] [µg/mL] | half-life at 1 μM [1, 5] [h] | solubility [2] [µg/mL] | IC50 [3, 6] [nM] | IC50 [3, 7] [nM]
Cc1cc(S(=O)(=O)NC2CCC(C)(O)CC2)ccc1-c1ccc(F)cc1F (single isomer, unassigned) [REF001, reference compound] | 0.717 | 50 (≈ 126 µM) |  |  |  | 
Cc1cc(S(=O)(=O)N[C@H]2CC[C@H](O)CC2)ccc1-c1ccc(F)cc1F [ABD735] | 8.73 | 20 (≈ 52.4 µM) |  |  |  | 
O=S(=O)(N[C@H]1CC[C@H](O)CC1)c1ccc(-c2ncc(Cl)cc2Cl)cc1 [ABD836, reference compound] | > 15 | 30 (≈ 74.8 µM) |  |  |  | 
C[C@]1(O)CC[C@@H](NS(=O)(=O)c2ccc(-c3ccc(F)cc3F)cc2)CC1 [ABD899, reference compound] | 1.2 | 60 (≈ 157 µM) | 1.75 | 130 (≈ 341 µM) |  | 
C[C@]1(O)CC[C@H](NS(=O)(=O)c2ccc(-c3ccc(F)cc3F)cc2)CC1 [ABD900, reference compound] |  |  | 1.45 | 120 (≈ 315 µM) |  | 
C[C@]1(O)CC[C@H](NS(=O)(=O)c2ccc(-c3ccc(Cl)cc3C#N)cc2)CC1 [HMC-C-01-A, 4′-Chloro-2′-cyano-N-((1r,4r)-4-hydroxy-4-methylcyclohexyl)biphenyl-4-sulfonamide] | 1.37 | 60 (≈ 148 µM) |  |  | 40 | 180
C[C@]1(O)CC[C@@H](NS(=O)(=O)c2ccc(-c3ccc(Cl)cc3C#N)cc2)CC1 [HMC-C-01-B, 4′-Chloro-2′-cyano-N-((1s,4s)-4-hydroxy-4-methylcyclohexyl)-[1,1′-biphenyl]-4-sulfonamide] |  |  | 1.17 | 80 (≈ 198 µM) |  | 60
C[C@]1(O)CC[C@H](NS(=O)(=O)c2ccc(-c3ccc(F)cc3C(F)(F)F)cc2)CC1 [HMC-C-02-A, 4′-Fluoro-N-((1r,4r)-4-hydroxy-4-methylcyclohexyl)-2′-(trifluoromethyl)biphenyl-4-sulfonamide] | 0.917 | 40 (≈ 92.7 µM) |  |  | 1 | 970
C[C@]1(O)CC[C@@H](NS(=O)(=O)c2ccc(-c3ccc(F)cc3C(F)(F)F)cc2)CC1 [HMC-C-02-B, 4′-Fluoro-N-((1s,4s)-4-hydroxy-4-methylcyclohexyl)-2′-(trifluoromethyl)-[1,1′-biphenyl]-4-sulfonamide] |  |  | 0.3 | 70 (≈ 162 µM) |  | 290
C[C@]1(O)CC[C@H](NS(=O)(=O)c2ccc(-c3c(F)cc(F)cc3F)cc2)CC1 [HMC-C-03-A, 2′,4′,6′-Trifluoro-N-((1r,4r)-4-hydroxy-4-methylcyclohexyl)biphenyl-4-sulfonamide] | 1.4 | 30 (≈ 75.1 µM) |  |  | 4 | 50
C[C@]1(O)CC[C@@H](NS(=O)(=O)c2ccc(-c3c(F)cc(F)cc3F)cc2)CC1 [HMC-C-03-B, 2′,4′,6′-Trifluoro-N-((1s,4s)-4-hydroxy-4-methylcyclohexyl)-[1,1′-biphenyl]-4-sulfonamide] |  |  | 0.8 | 150 (≈ 376 µM) |  | 20
C[C@]1(O)CC[C@H](NS(=O)(=O)c2ccc(-c3ccc(F)cc3F)c(F)c2)CC1 [HMC-C-04-A, 2,2′,4′-Trifluoro-N-((1r,4r)-4-hydroxy-4-methylcyclohexyl)-[1,1′-biphenyl]-4-sulfonamide] |  |  | 1.67 | 80 (≈ 200 µM) |  | 130
C[C@]1(O)CC[C@@H](NS(=O)(=O)c2ccc(-c3ccc(F)cc3F)c(F)c2)CC1 [HMC-C-04-B, 2,2′,4′-Trifluoro-N-((1s,4s)-4-hydroxy-4-methylcyclohexyl)-[1,1′-biphenyl]-4-sulfonamide] |  |  | 1.78 | 130 (≈ 325 µM) |  | 30
C[C@]1(O)CC[C@H](NS(=O)(=O)c2ccc(-c3ncc(F)cc3F)c(F)c2)CC1 [HMC-N-01-A, 4-(3,5-Difluoropyridin-2-yl)-3-fluoro-N-((1r,4r)-4-hydroxy-4-methylcyclohexyl)benzenesulfonamide] | 2.92 | 30 (≈ 74.9 µM) |  |  | 130 | 280
C[C@]1(O)CC[C@@H](NS(=O)(=O)c2ccc(-c3ncc(F)cc3F)c(F)c2)CC1 [HMC-N-01-B, 4-(3,5-Difluoropyridin-2-yl)-3-fluoro-N-((1s,4s)-4-hydroxy-4-methylcyclohexyl)benzenesulfonamide] |  |  | 2.12 | 120 (≈ 300 µM) |  | 30
C[C@]1(O)CC[C@H](NS(=O)(=O)c2ccc(-c3ncc(F)cc3F)cc2)CC1 [HMC-N-02-A, 4-(3,5-Difluoropyridin-2-yl)-N-((1r,4r)-4-hydroxy-4-methylcyclohexyl)benzenesulfonamide] | 6.12 | 20 (≈ 52.3 µM) |  |  | 150 | 290
C[C@]1(O)CC[C@H](NS(=O)(=O)c2ccc(-c3ncc(Cl)cc3Cl)c(F)c2)CC1 [HMC-N-04-A, 4-(3,5-Dichloropyridin-2-yl)-3-fluoro-N-((1r,4r)-4-hydroxy-4-methylcyclohexyl)benzenesulfonamide] | 2.6 | 60 (≈ 138 µM) |  |  |  | 
